Test results from paper PMC8298602, “14-3-3-protein regulates Nedd4-2 by modulating interactions between HECT and WW domains” (Communications Biology, 2021).
Non-standard residues stand in square brackets, D forms with d. Residues, ends and D or L forms follow the SMILES beside them. *: point of attachment. FITC = O=C1OC2(c3ccc(O)cc3Oc3cc(O)ccc32)c2ccc(NC(=S)*)cc21; pT = C[C@@H](OP(=O)(O)O)[C@H](N)C(=O)O; pS = N[C@@H](COP(=O)(O)O)C(=O)O

What was measured:
Format in all cases: binding
Details in all cases: 14-3-3 titrated 80 to 0.003418, three replicates
[1] = molecular target: T1, 14-3-3β (Homo sapiens, UniProt P31946); test: fluorescence polarization (FP) with FITC-labeled phosphopeptides, 14-3-3β
T1 sequence (P31946 1-246): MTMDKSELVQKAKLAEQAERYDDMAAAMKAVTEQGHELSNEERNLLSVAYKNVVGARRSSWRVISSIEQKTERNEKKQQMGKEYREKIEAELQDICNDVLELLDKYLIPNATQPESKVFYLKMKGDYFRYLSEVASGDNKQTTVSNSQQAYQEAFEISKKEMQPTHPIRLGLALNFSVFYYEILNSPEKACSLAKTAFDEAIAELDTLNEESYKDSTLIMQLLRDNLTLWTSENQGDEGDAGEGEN
Protocol: (§1) Fig. 4 14-3-3 isoform binding specificity of Nedd4-2 phosphomotifs. Binding of FITC-labeled phosphopeptides with 14-3-3 binding motifs of Nedd4-2 (pSer^342, pThr^367 or pSer^448) to all human 14-3-3 isoforms was characterized by FP titrations. The binding affinities of these peptides were determined by fitting FP data to a one-site binding model. The corresponding sequences of these peptides are shown at the top. Background polarization was subtracted from all values. Results are expressed as mean ± SD (n = 3). Error bars are not visible if they are smaller than the size of the symbol.
(§2) The FP assay was performed using a CLARIOstar microplate reader (BMG Labtech, […]) on 384-well black low-volume flat-bottom plates (Corning, New York, USA) in a buffer containing 10 mM HEPES (pH 7.4), 150 mM NaCl, 0.1% (v/v) Tween 20 and 0.1% (w/v) BSA. […] The excitation and emission wavelengths were 482 nm and 530 nm, respectively. The KD values were determined as the mean of three independent measurements using GraphPad Prism version 8.0.1 for Windows, GraphPad Software, La Jolla California USA, www.graphpad.com.
(§3) Results from the FP assay (Fig. 4) and immunoblot (Supplementary Fig. S1) are represented as means ± SD from three replicates as indicated in the figure legend. Statistical analysis for the data from immunoblot were performed using Graph-Pad Prism 8.4. Student’s t-test was used for comparison of relative changes of samples with and without 14-3-3η at selected timepoints (ns, non-significant P > 0.05; *, P < 0.05).

[2] = molecular target: T2, 14-3-3γ (Homo sapiens, UniProt P61981); test: fluorescence polarization (FP) with FITC-labeled phosphopeptides, 14-3-3γ
T2 sequence (P61981 1-247): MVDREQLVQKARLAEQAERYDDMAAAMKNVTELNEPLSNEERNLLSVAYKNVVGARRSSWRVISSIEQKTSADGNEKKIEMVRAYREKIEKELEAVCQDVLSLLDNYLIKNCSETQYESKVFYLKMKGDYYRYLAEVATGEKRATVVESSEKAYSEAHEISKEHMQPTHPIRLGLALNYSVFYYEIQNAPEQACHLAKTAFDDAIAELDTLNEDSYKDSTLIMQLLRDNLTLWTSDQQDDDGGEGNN
Protocol: as §1, §2, §3

[3] = molecular target: T3, 14-3-3ε (Homo sapiens, UniProt P62258); test: fluorescence polarization (FP) with FITC-labeled phosphopeptides, 14-3-3ε
T3 sequence (P62258 1-255): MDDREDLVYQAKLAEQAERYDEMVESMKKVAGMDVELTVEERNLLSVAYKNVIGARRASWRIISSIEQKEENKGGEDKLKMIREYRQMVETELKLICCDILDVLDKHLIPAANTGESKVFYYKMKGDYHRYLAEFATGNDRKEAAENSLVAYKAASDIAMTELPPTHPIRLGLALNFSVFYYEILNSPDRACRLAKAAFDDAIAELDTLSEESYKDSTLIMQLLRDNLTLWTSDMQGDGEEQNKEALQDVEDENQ
Protocol: as §1, §2, §3

[4] = molecular target: T4, 14-3-3ζ (Homo sapiens, UniProt P63104); test: fluorescence polarization (FP) with FITC-labeled phosphopeptides, 14-3-3ζ
T4 sequence (P63104 1-245): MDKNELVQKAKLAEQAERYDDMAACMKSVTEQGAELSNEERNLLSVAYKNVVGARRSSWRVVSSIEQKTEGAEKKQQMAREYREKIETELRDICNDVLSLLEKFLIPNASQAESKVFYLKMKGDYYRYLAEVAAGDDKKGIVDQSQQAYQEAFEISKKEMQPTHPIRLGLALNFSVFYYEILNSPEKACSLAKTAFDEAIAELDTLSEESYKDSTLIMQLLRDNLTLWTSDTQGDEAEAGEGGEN
Protocol: as §1, §2, §3

[5] = molecular target: T5, 14-3-3η (Homo sapiens, UniProt Q04917); test: fluorescence polarization (FP) with FITC-labeled phosphopeptides, 14-3-3η
T5 sequence (Q04917 1-246): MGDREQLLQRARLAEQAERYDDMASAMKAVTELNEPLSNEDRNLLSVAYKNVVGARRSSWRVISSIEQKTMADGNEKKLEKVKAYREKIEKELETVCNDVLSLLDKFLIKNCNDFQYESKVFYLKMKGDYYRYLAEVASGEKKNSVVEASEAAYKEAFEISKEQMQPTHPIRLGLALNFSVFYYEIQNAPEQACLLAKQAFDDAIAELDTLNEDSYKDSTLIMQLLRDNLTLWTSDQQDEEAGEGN
Protocol: as §1, §2, §3

[6] = molecular target: T6, 14-3-3σ (Homo sapiens, UniProt P31947); test: fluorescence polarization (FP) with FITC-labeled phosphopeptides, 14-3-3σ
T6 sequence (P31947 1-248): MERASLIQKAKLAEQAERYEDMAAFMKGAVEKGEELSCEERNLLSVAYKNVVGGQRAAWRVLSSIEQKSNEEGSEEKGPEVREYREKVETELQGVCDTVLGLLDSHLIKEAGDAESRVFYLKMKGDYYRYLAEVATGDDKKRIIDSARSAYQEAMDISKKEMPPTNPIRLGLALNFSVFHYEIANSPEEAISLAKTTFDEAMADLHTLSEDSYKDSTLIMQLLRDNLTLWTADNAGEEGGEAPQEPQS
Protocol: as §1, §2, §3

[7] = molecular target: T7, 14-3-3τ (Homo sapiens, UniProt P27348); test: fluorescence polarization (FP) with FITC-labeled phosphopeptides, 14-3-3τ
T7 sequence (P27348 1-245): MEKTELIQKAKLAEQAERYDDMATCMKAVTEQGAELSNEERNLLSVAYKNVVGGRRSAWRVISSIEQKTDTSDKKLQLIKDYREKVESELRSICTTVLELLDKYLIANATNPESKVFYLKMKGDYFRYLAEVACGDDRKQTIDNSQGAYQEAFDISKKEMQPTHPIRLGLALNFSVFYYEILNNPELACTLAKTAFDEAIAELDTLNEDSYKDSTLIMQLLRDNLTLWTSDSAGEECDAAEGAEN
Protocol: as §1, §2, §3

SMILES	Bmax (One site -- Specific binding, best-fit value) [1]	Bmax (One site -- Specific binding, best-fit value) [2]	Bmax (One site -- Specific binding, best-fit value) [3]	Bmax (One site -- Specific binding, best-fit value) [4]	Bmax (One site -- Specific binding, best-fit value) [5]	Bmax (One site -- Specific binding, best-fit value) [6]	Bmax (One site -- Specific binding, best-fit value) [7]
CC(C)C[C@H](NC(=S)Nc1ccc2c(c1)C(=O)OC21c2ccc(O)cc2Oc2cc(O)ccc21)C(=O)N[C@@H](CCCNC(=N)N)C(=O)N[C@@H](CO)C(=O)N[C@@H](CS)C(=O)N[C@@H](COP(=O)(O)O)C(=O)N[C@H](C(=O)N[C@H](C(=O)N[C@@H](CC(=O)O)C(=O)N[C@@H](C)C(=O)N[C@H](C(=O)O)C(C)C)[C@@H](C)O)C(C)C [Nedd4-2 peptide pS342] ({FITC}-LRSC[pS]VTDAV-OH; C-terminus assumed)	0.1665	0.2226	0.261	0.1453	0.164	0.9999	0.1186
CC(C)C[C@H](NC(=O)[C@H](CO)NC(=O)[C@H](CCCNC(=N)N)NC(=O)[C@@H]1CCCN1C(=S)Nc1ccc2c(c1)C(=O)OC21c2ccc(O)cc2Oc2cc(O)ccc21)C(=O)N[C@@H](COP(=O)(O)O)C(=O)N[C@@H](CO)C(=O)N1CCC[C@H]1C(=O)N[C@H](C(=O)N[C@H](C(=O)N[C@H](C(=O)O)[C@@H](C)O)C(C)C)[C@@H](C)O [Nedd4-2 peptide pS448] ({FITC}-PRSL[pS]SPTVT-OH; C-terminus assumed)	1	0.9424	0.7529	0.9954	0.8968	0.7456	0.8496
CC(C)[C@H](NC(=O)[C@@H](NC(=O)[C@H](CO)NC(=O)[C@H](CO)NC(=O)[C@H](CCCNC(=N)N)NC(=O)[C@H](C)NC(=S)Nc1ccc2c(c1)C(=O)OC21c2ccc(O)cc2Oc2cc(O)ccc21)[C@@H](C)OP(=O)(O)O)C(=O)N[C@H](C(=O)NCC(=O)NCC(=O)N[C@@H](CCC(=O)O)C(=O)O)[C@@H](C)O [Nedd4-2 peptide pT367] ({FITC}-ARSS[pT]VTGGE-OH; C-terminus assumed)	0.9561	0.9894	0.3092	1.002	0.8265	0.1205	0.7863
